Assay type in all cases: cell-based
Assay [1] addresses NK1 (Homo sapiens, UniProt P25103). Put plainly: Signal transduction (ST), intracellular Ca++ FLIPR, NK1. The settings on record: antagonist response, Ca++ transient peak, read-out: NK1 pIC50 (converted). As for the experimental part:
This test evaluates in vitro functional NK1 antagonistic activity. For the measurements of intracellular Ca^++ concentrations the cells were grown on 96-well (black wall/transparent bottom) plates from Costar for 2 days until they reached confluence. The cells were loaded with 2 μM Fluo3 in DMEM containing 0.1% BSA and 2.5 mM probenecid for 1 h at 37° C. They were washed 3× with a Krebs buffer (140 mM NaCl, 1 mM MgCl2×6H2O, 5 mM KCl, 10 mM glucose, 5 mM HEPES; 1.25 mM CaCl2; pH 7.4) containing 2.5 mM probenecid and 0.1% BSA (Ca^++-buffer). The cells were preincubated with a concentration range of antagonists for 20 min at RT and Ca^++-signals after addition of the agonists were measured in a Fluorescence Inage Plate Reader (FLIPR from Molecular Devices, Crawley, England). The peak of the Ca^++-transient was considered as the relevant signal and the mean values of corresponding wells were analysed as described below. The sigmoidal dose response curves were analysed by computerised curve-fitting, using the GraphPad Program. The EC50-value of a compound is the effective dose showing 50% of maximal effect. For mean curves the response to the agonist with the highest potency was normalised to 100%. For antagonist responses the IC50-value was calculated using non-linear regression. The last column indicates—without being limited thereto—for which use the compounds might be most suitable.

Assay [2] has as its target T1, NK2 (Homo sapiens, UniProt P21452).
T1 sequence (P21452 1-398): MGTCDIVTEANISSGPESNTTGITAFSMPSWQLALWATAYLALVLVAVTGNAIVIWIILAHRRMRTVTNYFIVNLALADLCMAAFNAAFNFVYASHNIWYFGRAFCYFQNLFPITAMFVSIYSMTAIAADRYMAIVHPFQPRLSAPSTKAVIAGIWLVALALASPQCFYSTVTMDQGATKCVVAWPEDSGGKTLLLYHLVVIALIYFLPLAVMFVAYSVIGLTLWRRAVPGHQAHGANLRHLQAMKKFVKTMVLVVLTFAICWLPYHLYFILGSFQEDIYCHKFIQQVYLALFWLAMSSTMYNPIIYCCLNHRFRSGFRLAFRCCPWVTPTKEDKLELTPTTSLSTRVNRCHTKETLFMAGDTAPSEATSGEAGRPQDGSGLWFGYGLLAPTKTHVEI
Put plainly: Signal transduction (ST), intracellular Ca++ FLIPR, NK2. The settings on record: antagonist response, Ca++ transient peak, read-out: NK2 pIC50 (converted).

For assay [3], the target named is T2, NK3 (Homo sapiens, UniProt P29371).
T2 sequence (P29371 1-465): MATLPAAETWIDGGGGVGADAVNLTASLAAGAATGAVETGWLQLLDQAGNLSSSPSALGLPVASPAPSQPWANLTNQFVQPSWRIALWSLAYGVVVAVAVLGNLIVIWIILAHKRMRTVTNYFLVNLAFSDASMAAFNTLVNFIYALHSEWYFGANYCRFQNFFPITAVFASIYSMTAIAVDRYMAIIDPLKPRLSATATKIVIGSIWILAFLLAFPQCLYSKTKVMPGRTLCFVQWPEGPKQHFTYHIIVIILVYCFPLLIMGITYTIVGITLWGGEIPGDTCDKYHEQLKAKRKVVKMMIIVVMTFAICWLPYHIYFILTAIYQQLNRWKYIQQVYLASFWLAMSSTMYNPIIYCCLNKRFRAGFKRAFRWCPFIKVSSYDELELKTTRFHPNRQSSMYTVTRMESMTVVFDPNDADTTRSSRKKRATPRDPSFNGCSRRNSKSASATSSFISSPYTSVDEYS
Put plainly: Signal transduction (ST), intracellular Ca++ FLIPR, NK3. The settings on record: antagonist response, Ca++ transient peak, read-out: NK3 pIC50 (converted).

Some results are limits rather than exact numbers.

Chain of NK1 (P25103 whole entry): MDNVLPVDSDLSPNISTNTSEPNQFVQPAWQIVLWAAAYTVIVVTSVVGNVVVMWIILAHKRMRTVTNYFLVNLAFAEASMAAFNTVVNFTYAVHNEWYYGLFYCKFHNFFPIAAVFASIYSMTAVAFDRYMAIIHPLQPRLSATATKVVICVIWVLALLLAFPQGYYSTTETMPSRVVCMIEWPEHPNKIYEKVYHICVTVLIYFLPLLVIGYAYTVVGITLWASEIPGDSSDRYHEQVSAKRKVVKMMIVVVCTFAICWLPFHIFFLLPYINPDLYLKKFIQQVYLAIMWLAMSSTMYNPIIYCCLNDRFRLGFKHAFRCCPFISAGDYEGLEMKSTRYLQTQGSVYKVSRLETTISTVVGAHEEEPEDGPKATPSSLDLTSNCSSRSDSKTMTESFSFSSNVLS

For the compound `O=C(c1cc(C(F)(F)F)cc(C(F)(F)F)c1)N1CCC(N2CCC3(CCCN3C(=O)C3CCOC3)C2)CC1Cc1ccccc1` (single isomer, unassigned) [Compound 1-5], the IC50 was 50.1 nM in assay [1] and 6310 nM in assay [2].
Regarding `O=C(c1cc(C(F)(F)F)cc(C(F)(F)F)c1)N1CCC(N2CCC3(CCCN3C(=O)C3CCOC3)C2)CC1Cc1ccccc1` (single isomer, unassigned) [Compound 1-6], the values for the IC50 in assay [1], in assay [2] and in assay [3] were 63.1 nM, 1580 nM and over 10000 nM, respectively.
On to `O=C(c1cc(C(F)(F)F)cc(C(F)(F)F)c1)N1CCC(N2CCC3(CCCN3Cc3ccccc3)C2)CC1Cc1ccccc1` (stereo not drawn) [Compound 1-2], for which the IC50 was 631 nM in assay [1], over 10000 nM in assay [2] and over 10000 nM in assay [3].
For `O=C(c1cc(C(F)(F)F)cc(C(F)(F)F)c1)N1CCC(N2CCC3(CCCN3C(=O)C3CC3)C2)CC1Cc1ccccc1` (stereo not drawn) [Compound 1-3], the IC50 in assay [1] was 251 nM; in assay [2] it was 3980 nM; in assay [3], over 10000 nM.
For the compound `O=C(c1cc(C(F)(F)F)cc(C(F)(F)F)c1)N1CC[C@H](N2CCC3(CCCN3C(=O)c3ccoc3)C2)C[C@H]1Cc1ccccc1` (stereo partly drawn) [Compound 1-7], the IC50 was 100 nM in assay [1], 3160 nM in assay [2] and over 10000 nM in assay [3].
As for `O=C(c1cc(C(F)(F)F)cc(C(F)(F)F)c1)N1CC[C@@H](N2CCC3(CCCN3C(=O)c3ccoc3)C2)C[C@H]1Cc1ccccc1` (stereo partly drawn) [Compound 1-8], the IC50 in assay [1] is 100 nM; in assay [2], 6310 nM; in assay [3] it was over 10000 nM.
With `O=C(c1cc(C(F)(F)F)cc(C(F)(F)F)c1)N1CC[C@@H](N2CCC3(CCCN3C(=O)c3cccs3)C2)C[C@H]1Cc1ccccc1` (stereo partly drawn) [Compound 1-9], the IC50 in assay [1] was 50.1 nM; in assay [2], 6310 nM; in assay [3], over 10000 nM.
As to `O=C(c1cc(C(F)(F)F)cc(C(F)(F)F)c1)N1CC[C@H](N2CCC3(CCCN3C(=O)c3ccccc3)C2)C[C@H]1Cc1ccccc1` (stereo partly drawn) [Compound 1-10], the IC50 in assay [1] is 200 nM; in assay [2], 5010 nM; in assay [3], over 10000 nM.
For the compound `O=C(c1cc(C(F)(F)F)cc(C(F)(F)F)c1)N1CC[C@@H](N2CCC3(CCCN3C(=O)c3ccccc3)C2)C[C@H]1Cc1ccccc1` (stereo partly drawn) [Compound 1-11], the IC50 in assay [1] is 158 nM; in assay [3] it was over 10000 nM.
For `O=C(c1cc(C(F)(F)F)cc(C(F)(F)F)c1)N1CC[C@@H](N2CCC3(CCCN3C(=O)c3cnccn3)C2)C[C@H]1Cc1ccccc1` (stereo partly drawn) [Compound 1-12], the IC50 was 200 nM in assay [1], 3980 nM in assay [2] and over 10000 nM in assay [3].
Taken in the same sequence, the figures for `CC(C)(C)C(=O)N1CCC2(CCN([C@H]3CCN(C(=O)c4cc(C(F)(F)F)cc(C(F)(F)F)c4)[C@H](Cc4ccccc4)C3)C2)C1` (stereo partly drawn) [Compound 2-3] were 63.1 nM, 3160 nM and 6310 nM.
As for `O=C(C1CC1)N1CCC2(CCN(C3CCN(C(=O)c4cc(C(F)(F)F)cc(C(F)(F)F)c4)C(Cc4ccccc4)C3)C2)C1` (stereo not drawn) [Compound 2-4], the figures for the IC50 in assay [1] and in assay [2] were 100 nM and 2510 nM, respectively.
For `O=C(C1CCOC1)N1CCC2(CCN([C@H]3CCN(C(=O)c4cc(C(F)(F)F)cc(C(F)(F)F)c4)[C@H](Cc4ccccc4)C3)C2)C1` (stereo partly drawn) [Compound 2-5], the IC50 in assay [1] was 39.8 nM; in assay [2], 2510 nM; in assay [3] it was 2000 nM.
For `O=C(c1ccoc1)N1CCC2(CCN([C@H]3CCN(C(=O)c4cc(C(F)(F)F)cc(C(F)(F)F)c4)[C@H](Cc4ccccc4)C3)C2)C1` (stereo partly drawn) [Compound 2-6] the same measures were 50.1 nM, 5010 nM and 3160 nM.
Taken in the same sequence, the figures for `O=C(c1cccs1)N1CCC2(CCN([C@H]3CCN(C(=O)c4cc(C(F)(F)F)cc(C(F)(F)F)c4)[C@H](Cc4ccccc4)C3)C2)C1` (stereo partly drawn) [Compound 2-7] were 158 nM, 6310 nM and 2510 nM.
Turning to `Cc1nnsc1C(=O)N1CCC2(CCN([C@H]3CCN(C(=O)c4cc(C(F)(F)F)cc(C(F)(F)F)c4)[C@H](Cc4ccccc4)C3)C2)C1` (stereo partly drawn) [Compound 2-8], the figures for the IC50 in assay [1], in assay [2] and in assay [3] were 100 nM, 6310 nM and 3980 nM, respectively.
As to `O=C(c1ccccc1)N1CCC2(CCN([C@H]3CCN(C(=O)c4cc(C(F)(F)F)cc(C(F)(F)F)c4)[C@H](Cc4ccccc4)C3)C2)C1` (stereo partly drawn) [Compound 2-9], the IC50 in assay [1] was 126 nM; in assay [2], 5010 nM; in assay [3], 3980 nM.
With `O=C(c1cnccn1)N1CCC2(CCN([C@H]3CCN(C(=O)c4cc(C(F)(F)F)cc(C(F)(F)F)c4)[C@H](Cc4ccccc4)C3)C2)C1` (stereo partly drawn) [Compound 2-10], the IC50 was 251 nM in assay [1], 5010 nM in assay [2] and over 10000 nM in assay [3].
